Measurements reported in patent publication US10329283B2, “G protein-coupled receptor kinase inhibitors and methods for use of the same” (THE REGENTS OF THE UNIVERSITY OF MICHIGAN, priority 2015, dated 2019).
Counter-ions that a name gives are not always drawn.

Tests used:
GRK1 = target: T1, GRK1 (Bos taurus, UniProt P28327); test: GRK1 kinetic assay for inhibition of GRKs (phosphorimaging); type: biochemical; details: 50 nM GRK, 5 μM ATP, 500 nM bROS or tubulin, 5 min
T1 sequence (P28327 1-535 limits assumed): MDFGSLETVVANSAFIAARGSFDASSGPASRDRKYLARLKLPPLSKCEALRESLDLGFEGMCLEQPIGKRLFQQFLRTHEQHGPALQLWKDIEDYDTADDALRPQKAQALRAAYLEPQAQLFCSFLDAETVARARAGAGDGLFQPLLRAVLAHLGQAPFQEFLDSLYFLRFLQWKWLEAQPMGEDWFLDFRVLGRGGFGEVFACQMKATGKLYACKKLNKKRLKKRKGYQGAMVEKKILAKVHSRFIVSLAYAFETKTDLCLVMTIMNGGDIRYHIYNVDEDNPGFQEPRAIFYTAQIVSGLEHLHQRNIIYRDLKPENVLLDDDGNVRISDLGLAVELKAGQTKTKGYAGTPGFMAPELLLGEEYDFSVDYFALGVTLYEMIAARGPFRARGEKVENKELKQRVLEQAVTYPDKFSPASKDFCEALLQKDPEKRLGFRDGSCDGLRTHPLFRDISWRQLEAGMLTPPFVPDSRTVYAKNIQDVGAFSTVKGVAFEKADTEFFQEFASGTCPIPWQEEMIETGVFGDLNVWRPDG
Description: (§1) The low salt concentration and DDM were used to maximize GRK activity and disrupt small molecule aggregates from forming, respectively. […] Data was analyzed and inhibition curves were fit via GraphPad Prism.

GRK2 [1] = target: T2, GRK2 (Homo sapiens, UniProt P25098); test: GRK2 kinetic assay for inhibition of GRKs (phosphorimaging); type: biochemical; details: 50 nM GRK, 5 μM ATP, 500 nM bROS or tubulin, 5 min
T2 sequence (P25098 1-689): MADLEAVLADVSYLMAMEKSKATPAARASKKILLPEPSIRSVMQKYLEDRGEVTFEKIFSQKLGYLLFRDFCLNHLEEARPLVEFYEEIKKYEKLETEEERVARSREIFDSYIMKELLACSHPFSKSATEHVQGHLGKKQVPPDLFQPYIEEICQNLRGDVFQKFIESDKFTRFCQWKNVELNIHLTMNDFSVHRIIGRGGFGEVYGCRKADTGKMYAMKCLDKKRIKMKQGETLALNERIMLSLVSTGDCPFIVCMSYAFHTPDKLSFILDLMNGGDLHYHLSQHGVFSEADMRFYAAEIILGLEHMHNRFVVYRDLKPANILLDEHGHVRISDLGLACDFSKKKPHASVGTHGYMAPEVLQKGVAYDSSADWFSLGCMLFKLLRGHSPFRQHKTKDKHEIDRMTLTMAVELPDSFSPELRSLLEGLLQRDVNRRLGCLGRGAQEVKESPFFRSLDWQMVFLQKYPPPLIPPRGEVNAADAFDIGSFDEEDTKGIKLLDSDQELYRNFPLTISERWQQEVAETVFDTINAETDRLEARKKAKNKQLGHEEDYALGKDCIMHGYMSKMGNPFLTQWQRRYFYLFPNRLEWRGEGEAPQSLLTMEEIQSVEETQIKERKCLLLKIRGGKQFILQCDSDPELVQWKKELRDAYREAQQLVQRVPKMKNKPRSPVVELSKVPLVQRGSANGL
Description: as §1

GRK5 = GRK5 (Homo sapiens, UniProt P34947); test: GRK5 kinetic assay for inhibition of GRKs (phosphorimaging); type: biochemical; details: 50 nM GRK, 5 μM ATP, 500 nM bROS or tubulin, 5 min
Description: as §1

GRK2 [2] = target: T2, GRK2; details: in words; Setyawan et al. 1999, Tesmer et al. 2010; cited from earlier work
[3] = in words; Thal et al., Mol Pharmacol 2011; cited from earlier work

Chain of GRK5 (P34947 whole entry, species assumed): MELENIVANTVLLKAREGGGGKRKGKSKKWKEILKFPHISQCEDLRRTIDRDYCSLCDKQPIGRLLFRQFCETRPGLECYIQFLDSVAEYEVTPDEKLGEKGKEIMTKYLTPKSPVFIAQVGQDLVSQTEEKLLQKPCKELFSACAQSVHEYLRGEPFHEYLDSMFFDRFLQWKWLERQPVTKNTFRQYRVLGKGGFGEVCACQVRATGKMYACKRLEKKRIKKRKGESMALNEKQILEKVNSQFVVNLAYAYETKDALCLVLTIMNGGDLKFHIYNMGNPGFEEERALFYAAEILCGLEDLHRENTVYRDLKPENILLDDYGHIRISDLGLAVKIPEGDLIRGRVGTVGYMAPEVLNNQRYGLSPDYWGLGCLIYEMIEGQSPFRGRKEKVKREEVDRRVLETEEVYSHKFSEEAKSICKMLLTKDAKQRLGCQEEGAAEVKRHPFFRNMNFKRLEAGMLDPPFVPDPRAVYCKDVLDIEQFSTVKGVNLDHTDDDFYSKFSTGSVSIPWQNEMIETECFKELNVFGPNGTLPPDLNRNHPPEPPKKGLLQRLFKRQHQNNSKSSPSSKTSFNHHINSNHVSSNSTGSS

| SMILES | IC50 (GRK1) [µM] | IC50 (GRK2 [1]) [µM] | IC50 (GRK5) [µM] | inhibition of GRK2 (GRK2 [2]) | bioavailability [3] |
| --- | --- | --- | --- | --- | --- |
| O=C(Cc1cc([C@@H]2CCNC[C@H]2COc2ccc3c(c2)OCO3)ccc1F)NCc1c(F)cccc1F [Example E01, 2-(5-((3S,4R)-3-((benzo[d][1,3]dioxol-5-yloxy)methyl)piperidin-4-yl)-2-fluorophenyl)-N-(2,6-difluorobenzyl)acetamide hydrochloride] | > 100 | 2.53 | > 100 | – | – |
| COc1cccc(OC)c1CNC(=O)c1cc([C@@H]2CCNC[C@H]2COc2cc3cn[nH]c3cc2F)ccc1F [Example E31, N-(2,6-dimethoxybenzyl)-2-fluoro-5-((3S,4R)-3-(((6-fluoro-1H-indazol-5-yl)oxy)methyl)piperidin-4-yl)benzamide] | 40.1 | 0.4 | 8.12 | – | – |
| O=C(N[C@@H]1CNCCC[C@H]1OC(=O)c1cc(O)c(C(=O)c2c(O)cccc2C(=O)O)c(O)c1)c1ccc(O)cc1 [balanol] | – | – | – | low nanomolar range | – |
| O=C(NCc1c(C(F)(F)F)cccc1C(F)(F)F)c1cc([C@@H]2CCNC[C@H]2COc2ccc3c(c2)OCO3)ccc1F [Example E14, 5-((3S,4R)-3-((benzo[d][1,3]dioxol-5-yloxy)methyl)piperidin-4-yl)-N-(2,6-bis(trifluoromethyl)benzyl)-2-fluorobenzamide hydrochloride] | 23.6 | 0.77 | 41.1 | – | – |
| O=C(NCc1c(Cl)cccc1Cl)c1cc([C@@H]2CCNC[C@H]2COc2ccc3c(c2)OCO3)ccc1F [Example E16, 5-((3S,4R)-3-((benzo[d][1,3]dioxol-5-yloxy)methyl)piperidin-4-yl)-N-(2,6-dichlorobenzyl)-2-fluorobenzamide hydrochloride] | 16.6 | 1.21 | 33.6 | – | – |
| O=C(Cc1cc([C@@H]2CCNC[C@H]2COc2ccc3c(c2)OCO3)ccc1F)NCCc1c(F)cccc1F [Example E02, 2-(5-((3S,4R)-3-((benzo[d][1,3]dioxol-5-yloxy)methyl)piperidin-4-yl)-2-fluorophenyl)-N-(2,6-difluorophenethyl)acetamide hydrochloride] | 95.3 | 0.42 | > 100 | – | – |
| CCCn1c(CNc2cccc(C(=O)NCc3c(F)cccc3F)c2)nnc1-c1ccncn1 [Takeda103A] | – | – | – | – | poor bioavailability |
| O=C(Cc1cc([C@@H]2CCNC[C@H]2COc2ccc3c(c2)OCO3)ccc1F)NCc1ccccn1 [Example E05, 2-(5-((3S,4R)-3-((benzo[d][1,3]dioxol-5-yloxy)methyl)piperidin-4-yl)-2-fluorophenyl)-N-(pyridin-2-ylmethyl)acetamide hydrochloride] | 59.2 | 3.61 | > 100 | – | – |
